Laboratory results taken from patent US9044481B2 (GlaxoSmithKline Biologicals S.A., priority 2009, dated 2015).

System: C57BL/6 female mice
Assay: Innate cytokines and chemokines in sera of vaccinated mice (SIV-p27 model, AS01B + TLR7-L liposomes)
Assay type: in vivo
Settings: for IL-6 in sera / TNF-α in sera / chemokine MCP-1 in sera: after injection, DPPC liposomes with SIV-p27 and AS01B, vs AS01B reference group
Description: We evaluated the capacity of TLR7 ligands to promote various aspects of the immune response in mice. Innate immunity was specifically investigated to conclude whether lipidated TLR7 compounds were able to induce innate chemokines and pro-inflammatory cytokines. This innate immune response provides the body with initial, non-specific protection against pathogens. Among these innate chemokines and cytokines, type I IFN is thought to be required for the programming of naïve CD8 T-cell with respect to survival, differentiation and memory development.
10.4 ml of lipidated-TLR7-L A1 at 10 mg/ml in chloroform were transferred into a round-bottomed glass vial. To this vial were added 18.4 ml of DPPC solubilised in chloroform at 100 mg/ml. 21.9 ml of lipidated-TLR7-L compound A3 solubilized at 5 mg/ml in chloroform were transferred into a round-bottomed glass vial. To this vial were added 20 ml of DPPC solubilised in chloroform at 100 mg/ml. Chloroform was evaporated in a Büchi Rotavapor under slow decrease of pressure. The obtained film was further dessicated at least overnight in a dessicator under vacuum. After that, the lipid film was slowly hydrated on an orbital shaker (maximal speed: 250 rpm) using 50 mM PO4-100 mM NaCl, pH 7 buffer pre-heated at 60° C.
After completion of resuspension, a swelling step was carried out in order to further increase the phospholipid hydration, it consists of incubating the preparation at room temperature. The suspension was then pre-homogenized using a rotor-stator homogenizer (X620 CAT) for 12 min at 8000 rpm.
Microfluidization was then carried out using a microfluidizer (Model 110S-Serial 90181-Microfluidics Corporation) at 6 bars while keeping the microfluidization chamber at about 40° C. Sterile filtration was achieved on a PES filter (GD/X 0.2 μm, 25 mm, Whatman).
Lipidated molecules A3 and A1 were evaluated in vivo. The SIV-p27-containing formulations summarized in Table 1 were used to vaccinate 6-8 week old C57BL/6 female mice (10/group). The mice received two intramuscular injections of 50 μl, 14 days apart and were bled at different time points after prime and boost as illustrated in FIG. 1.
The innate and adaptive immune responses induced by the formulations containing the TLR7 agonists and the proprietary AS01B adjuvant (QS21+MPL) were also compared to the one induced by the corresponding AS01B-containing formulations and empty DPPC liposomes.

SMILES	IL-6 in sera	TNF-α in sera	chemokine MCP-1 in sera	relative potency in enhancing inflammatory cytokines TNF-α and IL-6 (comparison of A1 and A3 in DPPC liposome formulations)
CCCCCCCCCCCCCCCC(=O)OC[C@H](COP(=O)(O)OCCN1CCC(Cn2c(O)nc3c(N)nc(OCCCC)nc32)CC1)OC(=O)CCCCCCCCCCCCCCC [Compound A1]	enhanced	enhanced	enhanced	more potent than A3
CCCCCCCCCCCCCCCC(=O)OC[C@H](COP(=O)(O)N1CCN(CCn2c(O)nc3c(N)nc(OCCCC)nc32)CC1)OC(=O)CCCCCCCCCCCCCCC [Compound A3, 6-Amino-2-butoxy-9-[1-(1,2-dipalmitoyl-sn-glycero-3-phosphoramido)-4-piperazinylethyl]-8-hydroxypurine]	enhanced	enhanced	enhanced	
